Data as given in paper PMC12621191, “Increasing the Chemical Space of L-SIGN Specific Glycomimetics” (Journal of Medicinal Chemistry, 2025).

Key:
L-SIGN = biological target: T1, L-SIGN (Homo sapiens, UniProt Q9H2X3); assay: SPR binding inhibition (competition) assay on immobilized SARS-CoV-2 Spike surface, L-SIGN; conditions: for Selectivity = (IC50 [DC-SIGN]/IC50 [L-SIGN]): L-SIGN vs DC-SIGN, SPR inhibition on Spike surface; for IC50 / L-SIGN IC50: SPR, Spike functionalized chip, L-SIGN 20 μM coinjected with ligand, pH 8, duplicates
T1 construct: L-SIGN 3G-ECD (amino acids 78 to 399); made in house
T1 sequence (Q9H2X3 78-399): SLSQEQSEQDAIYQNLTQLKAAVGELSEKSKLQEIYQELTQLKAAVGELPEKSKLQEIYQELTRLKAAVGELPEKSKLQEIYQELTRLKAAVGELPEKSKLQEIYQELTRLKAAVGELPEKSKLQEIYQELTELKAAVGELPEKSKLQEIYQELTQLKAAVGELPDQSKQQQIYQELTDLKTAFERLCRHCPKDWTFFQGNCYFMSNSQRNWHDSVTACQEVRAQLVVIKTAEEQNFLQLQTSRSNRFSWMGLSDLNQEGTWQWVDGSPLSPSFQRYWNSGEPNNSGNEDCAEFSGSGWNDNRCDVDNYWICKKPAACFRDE

DC-SIGN = biological target: T2, DC-SIGN (Homo sapiens, UniProt Q9NNX6); assay: SPR binding inhibition (competition) assay on immobilized SARS-CoV-2 Spike surface, DC-SIGN; conditions: Spike functionalized chip, DC-SIGN 20 μM coinjected with ligand, pH 8, duplicates
T2 construct: DC-SIGN 3G-ECD (amino acids 66 to 404); made in house
T2 sequence (Q9NNX6 66-404): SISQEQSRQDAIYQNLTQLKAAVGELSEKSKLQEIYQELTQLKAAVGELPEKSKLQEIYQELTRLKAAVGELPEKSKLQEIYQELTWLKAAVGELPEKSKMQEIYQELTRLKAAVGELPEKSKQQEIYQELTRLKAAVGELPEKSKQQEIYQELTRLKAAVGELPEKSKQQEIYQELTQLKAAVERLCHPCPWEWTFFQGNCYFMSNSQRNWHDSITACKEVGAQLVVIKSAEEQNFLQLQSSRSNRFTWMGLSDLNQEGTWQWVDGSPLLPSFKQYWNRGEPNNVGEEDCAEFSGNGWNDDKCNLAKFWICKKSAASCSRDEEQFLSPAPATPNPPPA

Row | SMILES | Selectivity = (IC50 [DC-SIGN]/IC50 [L-SIGN]) (L-SIGN) | IC50 (L-SIGN) | IC50 (DC-SIGN) | L-SIGN IC50 (L-SIGN) | Selectivity = (IC50 [DC-SIGN]/IC50 [L-SIGN]) (L-SIGN; listed as 51 (Man79))
1 | N=C(N)NCc1cn([C@@H]2[C@@H](OCCCl)O[C@H](CO)[C@@H](O)[C@@H]2O)nn1 [Man84, reference compound] | 61 | 19 ± 0.02 µM | 1160 ± 25 µM | – | –
2 | OC[C@H]1O[C@H](OCCCl)[C@@H](n2cc(CNc3ncccn3)nn2)[C@@H](O)[C@@H]1O [compound 2] | – | 602 ± 0.5 µM | 798 ± 16 µM | Low affinity | –
3 | COc1nc(NCc2cn([C@@H]3[C@@H](OCCCl)O[C@H](CO)[C@@H](O)[C@@H]3O)nn2)nc(OC)n1 [compound 3, 2-Chloroethyl 2-Deoxy-2-(4-(((4,6-dimethoxy-1,3,5-triazin-2-yl)amino)methyl)-1,2,3-triazol-1-yl)-α-D-mannopyranoside] | – | 453 ± 0.4 µM | 555 ± 14 µM | Low affinity | –
4 | OC[C@H]1O[C@H](OCCCl)[C@@H](n2cc(CNC3=NCCN3)nn2)[C@@H](O)[C@@H]1O [compound 4] | 76 | 15 ± 0.01 µM | 1130 ± 26 µM | – | –
5 | OC[C@H]1O[C@H](OCCCl)[C@@H](n2cc(CNC3=NCCCN3)nn2)[C@@H](O)[C@@H]1O [compound 5, 2-Chloroethyl 2-Deoxy-2-(4-(((1,4,5,6-tetrahydropyrimidin-2-yl)amino)methyl)-1,2,3-triazol-1-yl)-α-D-mannopyranoside] | 94 | 12 ± 0.01 µM | 1130 ± 55 µM | – | –
6 | O=c1ccnc(NCc2cn([C@@H]3[C@@H](OCCCl)O[C@H](CO)[C@@H](O)[C@@H]3O)nn2)[nH]1 [compound 6, 2-Chloroethyl 2-Deoxy-2-(4-(((pyrimidin-4(3H)-onyl)amino)methyl)-1,2,3-triazol-1-yl)-α-D-manno Pyranoside] | 25 | 30 ± 0.2 µM | 750 ± 29 µM | – | –
7 | O=c1nccc(NCc2cn([C@@H]3[C@@H](OCCCl)O[C@H](CO)[C@@H](O)[C@@H]3O)nn2)[nH]1 [compound 7, 2-Chloroethyl 2-Deoxy-2-(4-(((pyrimidin-2(1H)-onyl)amino)methyl)-1,2,3-triazol-1-yl)-α-D-manno Pyranoside] | 5 | 130 ± 1 µM | 692 ± 8 µM | – | –
8 | OC[C@H]1O[C@H](OCCCl)[C@@H](n2cc(CNc3ccccn3)nn2)[C@@H](O)[C@@H]1O [compound 8, 2-Chloroethyl 2-Deoxy-2-((4-((pyridin-2-ylamino)methyl))-1,2,3-triazol-1-yl)-α-D-mannopyranoside] | 8 | 101 ± 0.2 µM | 822 ± 16 µM | – | –
9 | OC[C@H]1O[C@H](OCCCl)[C@@H](n2cc(CNc3ncc[nH]3)nn2)[C@@H](O)[C@@H]1O [compound 9, 2-Chloroethyl 2-Deoxy-2-(4-(((1H-imidazol-2-yl)amino)methyl)-1,2,3-triazol-1-yl)-α-D-mannopyranoside] | 50 | 18 ± 0.1 µM | 895 ± 8 µM | – | –
10 | OC[C@H]1O[C@H](OCCCl)[C@@H](n2cc(CNc3nc4ccccc4[nH]3)nn2)[C@@H](O)[C@@H]1O [compound 10, 2-Chloroethyl 2-Deoxy-2-(4-(((1H-benzo[d]imidazol-2-yl)amino)methyl)-1,2,3-triazol-1-yl)-α-D-mannopyranoside] | 16 | 48 ± 0.4 µM | 779 ± 24 µM | – | –
11 | COc1ccc2[nH]c(NCc3cn([C@@H]4[C@@H](OCCCl)O[C@H](CO)[C@@H](O)[C@@H]4O)nn3)nc2c1 [compound 11, 2-Chloroethyl 2-Deoxy-2-(4-(((5-methoxy-1H-benzo[d]imidazol-2-yl)amino)methyl)-1,2,3-triazol-1-yl)-α-D-mannopyranoside] | 12 | 51.6 ± 0.7 µM | 602 ± 12 µM | – | –
12 | NCc1cn([C@@H]2[C@@H](OCCCl)O[C@H](CO)[C@@H](O)[C@@H]2O)nn1 [compound 51, reference compound] | – | ~300 µM | ~300 µM | – | totally unselective
